Tests used:
[1] = molecular target: T1, α4β1 Integrin (Homo sapiens, UniProt P05556+P13612); assay: α4β1 Integrin Adhesion Assay: Jurkat cell adhesion to human plasma fibronectin; type: cell-based; details: Jurkat cells
T1 construct: endogenous in cells; host or cells: Jurkat cells
Experimental: 96 well plates (Costar 3590 EIA plates) were coated with human fibronectin (Gibco/BRL, cat #33016-023) at a concentration of 10 μg/mL overnight at 4° C. The plates were then blocked with a solution of bovine serum albumin (BSA; 0.3%) in saline. Jurkat™ cells (maintained in log phase growth) were labeled with Calcein AM according to the manufacturer's instructions, and suspended at a concentration of 2×10^6 cells/mL in Hepes/Saline/BSA. The cells were then exposed to test and control compounds for 30 minutes at room temperature before transfer to individual wells of the fibronectin coated plate. Adhesion was allowed to occur for 35 minutes at 37° C. The wells were then washed by gentle aspiration and pipetting with fresh saline. Fluorescence associated with the remaining adherent cells was quantified using a fluorescence plate reader at EX 485/EM 530.
Cell cultures were prepared by first splitting the stationary phase Jurkat™ cells at 1:10 on day one, and 1:2 on day two to perform assay on day 3. The cells split 1:10 on day one were split 1:4 on day 3 for a day 4 assay.
The assay plates were prepared by first making a working solution of Gibco/BRL Human Fibronectin (cat # 33016-023) in PBS++, at 10 μg/mL.
A Costar 3590 EIA plate was then coated with 50 μL/well for 2 hours at room temperature (thought it can also be left overnight at 4° C). Finally the plate was asperated and blocked with Hepes/Saline Buffer, 100 μL/well, for 1 hour at RT followed by washing three times with 150 μL of PBS++.
Compound dilutions were accomplished by preparing 1:3 serial dilutions of compounds as follows. For each plate (4 compounds/plate) 600 μL were added to 4 Bio-Rad Titertubes in a Titertube rack. Enough compound was added to each appropriate tube to give a 2× concentration using methods well known in the art. Using Falcon Flexiplates, 100 μL of Hepes/Saline buffer or human serum were added to rows B through G. A multi-channel pipetter set to 180 μL was used to with four tips spaced evenly the pipetter. Each set of four tubes was mixed 5 times and 180 μL, of 2× compound was transferred to the first column of each compound dilution in Row B, leaving Row A empty. 180 μL were added to the other wells in Row A. Serial dilutions were performed down the plate by transferring 50 μL to the next dilution and mixing 5 times, changing tips each time after mixing. Dilutions were stopped at Row F. Row G had no compound present.
A 20 μg/mL solution in Hepes/Saline buffer or human serum, of 21/6 antibody was the positive control and was set aside in a reagent trough to add to cell suspension plate.
The cell staining was accomplished by first harvesting the log-phase Jurkat™ cells by centrifugation in 50 mL tubes (1100 rpm for 5 minutes). The cells were resuspended in 50 mL PBS++, spun, and resuspend in 20 mL PBS++. The cells were stained by adding 20 μL of Calcein AM for 30 minutes R.T. The volume was brought to 50 mL with Hepes/Saline buffer and the cells were counted, spun, and resuspend to 2×10^6 cells/mL in Hepes/Saline buffer or human serum.
The compounds were incubated using the following procedure. In a new flexiplate, 65 μL of stained cells were added to Rows B through H. Then 65 μL of 2× compounds were added to the appropriate rows following the plate setup and mixed 3×. 65 μL of 2×-21/6 antibody were added to Row H and mixed 3×. Finally the plate was incubated at room temperature for 30 minutes.
Fibronectin adhesion was measured using a fluorescent plate reader at EX 485/EM 530 after the following work up procedure. After incubation, the cells were mixed 3× and 100 μL were transferred to the Fibronectin coated plates and incubated at 37° C. for about 35 minutes. Each plate was washed, row by row, by gently pipetting 100 μL of R.T. PBS++ down the sides of the wells and turning the plate 90 degrees to aspirate. This procedure was repeated for a total of 3 washes. Each well was filled with 100 μL after washing by pipetting down the side of the well. […]

[2] = Cassette dosing and serum analysis for determination of oral bioavailability; type: in vivo, Sprague Dawley (SD) rats; details: rats, oral cassette of 6 compounds, total dose 10 mg/kg, plasma samples at 4, 8 and 12 h
Experimental: The oral bioavailability was screened by dosing rats with a cassette, i.e. mixture of 6 compounds per dosing solution. The cassette included 5 test articles and a standard compound, for a total dose of 10 mg/kg. Each compound/test article was converted to the sodium salt with equimolar 1 N NaOH and dissolved in water at 2 mg/mL. The cassette was prepared by mixing equal volumes of each of the six solutions. The cassette dosing solution was mixed well and then the pH was adjusted to 7.5-9. The dosing solution was prepared the day before the study and stirred overnight at room temperature.
Male Sprague Dawley (SD) rats from Charles River Laboratories, 6-8 weeks old were used in this screen. Rats were quarantined for at least one day and had continuous access to food and water. On the night before the administration of the cassette, the rats were fasted for approximately 16 h.
Four SD rats were assigned in each cassette. A single dose of the dosing solution was administered orally to each rat. The dosing volume (5 mL/kg) and time were recorded and rats were fed 2 h after dosing.
Blood samples were collected via cardiac puncture at the following time points: 4 h, 8 h and 12 h. Immediately prior to blood collection, rats were anesthetized with CO2 gas within 10-20 seconds. After the 12-hour samples were collected, the rats were euthanized via CO2 asphyxiation followed by cervical dislocation.
Blood samples were kept in heparinized microtainer tubes under sub-ambient temperature (4° C.) before they were processed. Blood samples were centrifuged (10000 rpm for 5 minutes) and plasma samples were removed and stored in a −20° C. freezer until analyzed for drug levels. Drug levels in the plasma were analyzed using the following protocol for direct plasma precipitation.
The in vivo plasma samples were prepared in a 1.5 mL 96-well plate, by adding, in order, 100 μL of the test plasma, 150 μL of methanol, followed by vortexing for 10-20 seconds. 150 μL of 0.05 ng/μL of an Internal Standard in acetonitrile were added and vortexed for 30 seconds.
The standard curve samples were prepared in a 1.5 mL 96-well plate, by adding, in order, 100 μL of control mouse plasma, followed by 150 μL of methanol and vortexing for 10-20 seconds. 150 μL of 0.05 ng/μL of an Internal Standard in acetonitrile were added and vortexed for 30 seconds. The samples were spiked with 0-200 ng (10 concentrations) of the compound of interest in 50% methanol to obtain a standard curve range of 0.5 ng/mL-2,000 ng/mL. Again, the sample was vortexed for 30 seconds.
The samples were then spun for 20-30 minutes at 3000 rpm in an Eppendorf microfuge before 80-90% of supernatant was transferred into a clean 96-well plate. The organic solvent was then evaporated until the samples were dry (under N2 at 40° C./30-60 min (ZymarkTurbovap)).
The residue was then dissolved in 200-600 L mobile phase (50% CH3OH/0.1% TFA). LC/MS/MS was then run using a PE-Sciex API-3000 triple quadurpole mass spectrometer (SN0749707), Perkin-Elmer, Series200auto-sampler, and shimadzu 10A pump. Acquisition was done with PE-Sciex Analyst (v1.1) and data analysis and quantification were accomplished using PE-Sciex Analyst (v1.1). A 5-50 μL sample volume was injected onto a reverse phase ThermoHypersil DASH-18 column (Keystone 2.0×20 mm, 5 μm, PN: 8823025-701) using a mobile phase of 25% CH3OH, 0.1% TFA-100% CH3OH, 0.1% TFA. The run time was about 8 minutes at a flow rate of about 300 μL/minutes.
The Area Under the Curve (AUC) was calculated using the linear trapezoidal rule from t=0 to the last sampling time tx (see Handbook of Basic Pharmacokinetics, Wolfgang A. Ritschel and Gregory L. Kearns, 5th ed, 1999). AUC^0−+tx=S((Cn+Cn+1)/2))·(tn+1−tn)[(μg/mL)h]
In the case of the cassette dosing paradigm, samples at 4, 8 and 12 h post extravascular dosing, the AUC was calculated from t=0 to t=12 h.

T1 sequence (P13612 34-1032): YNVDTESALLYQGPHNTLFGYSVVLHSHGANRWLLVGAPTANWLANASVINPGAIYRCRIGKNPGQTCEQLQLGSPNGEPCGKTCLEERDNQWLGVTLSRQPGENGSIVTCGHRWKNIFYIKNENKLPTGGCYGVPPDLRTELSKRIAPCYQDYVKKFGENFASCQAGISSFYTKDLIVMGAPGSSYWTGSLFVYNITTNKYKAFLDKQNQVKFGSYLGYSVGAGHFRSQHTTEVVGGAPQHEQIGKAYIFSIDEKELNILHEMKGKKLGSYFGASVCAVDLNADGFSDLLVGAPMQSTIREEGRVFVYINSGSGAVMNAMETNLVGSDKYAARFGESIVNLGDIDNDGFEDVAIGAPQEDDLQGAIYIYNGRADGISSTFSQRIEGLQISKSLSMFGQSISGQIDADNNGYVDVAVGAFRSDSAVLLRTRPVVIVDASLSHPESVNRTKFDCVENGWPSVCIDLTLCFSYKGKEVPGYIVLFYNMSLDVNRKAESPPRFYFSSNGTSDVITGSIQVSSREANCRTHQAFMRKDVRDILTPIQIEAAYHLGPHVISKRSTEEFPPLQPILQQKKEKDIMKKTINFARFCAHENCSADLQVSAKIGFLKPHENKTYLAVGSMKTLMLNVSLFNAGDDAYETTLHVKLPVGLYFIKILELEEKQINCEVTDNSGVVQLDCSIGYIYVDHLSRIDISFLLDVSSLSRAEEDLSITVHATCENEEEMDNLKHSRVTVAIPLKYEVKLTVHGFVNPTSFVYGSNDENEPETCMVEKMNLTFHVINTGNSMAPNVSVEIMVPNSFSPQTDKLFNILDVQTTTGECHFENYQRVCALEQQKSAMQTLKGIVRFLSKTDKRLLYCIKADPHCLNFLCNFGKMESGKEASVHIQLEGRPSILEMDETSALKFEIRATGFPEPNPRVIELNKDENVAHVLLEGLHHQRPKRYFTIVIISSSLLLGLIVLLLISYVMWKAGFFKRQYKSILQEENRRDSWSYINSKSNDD
T1 sequence (P05556 21-798): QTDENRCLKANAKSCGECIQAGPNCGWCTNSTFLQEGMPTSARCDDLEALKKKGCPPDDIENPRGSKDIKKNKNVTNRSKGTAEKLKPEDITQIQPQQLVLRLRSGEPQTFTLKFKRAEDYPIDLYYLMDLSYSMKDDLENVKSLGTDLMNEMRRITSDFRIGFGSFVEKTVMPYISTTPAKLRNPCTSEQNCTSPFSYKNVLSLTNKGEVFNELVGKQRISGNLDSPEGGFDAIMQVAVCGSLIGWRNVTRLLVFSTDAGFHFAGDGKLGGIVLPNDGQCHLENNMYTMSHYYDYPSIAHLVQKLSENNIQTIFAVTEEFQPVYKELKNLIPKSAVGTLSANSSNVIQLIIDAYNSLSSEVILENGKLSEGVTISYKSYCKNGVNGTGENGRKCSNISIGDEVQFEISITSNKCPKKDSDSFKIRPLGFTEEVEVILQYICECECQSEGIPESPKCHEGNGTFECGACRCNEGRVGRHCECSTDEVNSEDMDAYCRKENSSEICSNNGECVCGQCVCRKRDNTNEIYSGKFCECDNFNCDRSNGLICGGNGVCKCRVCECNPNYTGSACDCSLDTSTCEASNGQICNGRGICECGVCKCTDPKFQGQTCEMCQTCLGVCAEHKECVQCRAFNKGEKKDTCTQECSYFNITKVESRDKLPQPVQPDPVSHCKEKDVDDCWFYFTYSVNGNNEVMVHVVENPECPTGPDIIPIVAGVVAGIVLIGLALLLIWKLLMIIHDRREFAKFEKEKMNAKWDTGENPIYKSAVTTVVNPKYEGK

Substance	IC50, Cell Adhesion to Human Plasma Fibronectin (With human serum) [1]	IC50, Cell Adhesion to Human Plasma Fibronectin (Without the human serum) [1]	AUC (average AUC 0-12 h) [2]
2-{2-diethylamino-5-[(3,5-dichlorobenzenesulfonyl)methylamino]pyrimidin-4-ylamino}-3-(4-dimethylcarbamoyloxyphenyl)propionic acid [Example 19]	0.08535 µg/mL	0.003393 µg/mL	0.0697 (μg/mL)h
2-{2-diethylamino-5-[(2,5-difluorobenzenesulfonyl)methylamino]pyrimidin-4-ylamino}-3-(4-dimethylcarbamoyloxyphenyl)propionic acid [Example 25]	6.72 µg/mL	0.006 µg/mL	0.4559 (μg/mL)h
2-{2-diethylamino-5-[(3-fluorobenzenesulfonyl)methylamino]pyrimidin-4-ylamino}-3-(4-dimethylcarbamoyloxyphenyl)propionic acid [Example 7]	0.5869 µg/mL	0.000821 µg/mL	0.717 (μg/mL)h
2-{2-diethylamino-5-[(3,5-dichlorobenzenesulfonyl)ethylamino]pyrimidin-4-ylamino}-3-(4-dimethylcarbamoyloxyphenyl)propionic acid [Example 20]	0.07751 µg/mL	0.005114 µg/mL	0.0536 (μg/mL)h
2-{2-diethylamino-5-[(2,4-difluorobenzenesulfonyl)ethylamino]pyrimidin-4-ylamino}-3-(4-dimethylcarbamoyloxyphenyl)propionic acid [Example 18]	0.025 µg/mL	0.002 µg/mL	0.2578 (μg/mL)h
2-{2-diethylamino-5-[(3,5-difluorobenzenesulfonyl)methylamino]pyrimidin-4-ylamino}-3-(4-dimethylcarbamoyloxyphenyl)propionic acid [Example 15]	0.1243 µg/mL	0.000915 µg/mL	0.2098 (μg/mL)h
2-{2-diethylamino-5-[(chlorobenzenesulfonyl)ethylamino]pyrimidin-4-ylamino}-3-(4-dimethylcarbamoyloxyphenyl)propionic acid [Example 13]	0.075 µg/mL	0.004 µg/mL	1.5806 (μg/mL)h
2-{2-diethylamino-5-[(3,5-difluorobenzenesulfonyl)ethylamino]pyrimidin-4-ylamino}-3-(4-dimethylcarbamoyloxyphenyl)propionic acid [Example 16]	0.06707 µg/mL	0.001035 µg/mL	0.1721 (μg/mL)h
2-{2-diethylamino-5-[(2,4-difluorobenzenesulfonyl)methylamino]pyrimidin-4-ylamino}-3-(4-dimethylcarbamoyloxyphenyl)propionic acid [Example 17]	0.024 µg/mL	0.001 µg/mL	1.0075 (μg/mL)h
2-{2-diethylamino-5-[(3,4-difluorobenzenesulfonyl)ethylamino]pyrimidin-4-ylamino}-3-(4-dimethylcarbamoyloxyphenyl)propionic acid [Example 12]	0.06 µg/mL	0.003 µg/mL	0.8447 (μg/mL)h
2-{2-diethylamino-5-[(3,4-dichlorobenzenesulfonyl)methylamino]pyrimidin-4-ylamino}-3-(4-dimethylcarbamoyloxyphenyl)propionic acid [Example 4]	0.4 µg/mL	0.004 µg/mL	0.5965 (μg/mL)h
2-{2-diethylamino-5-[(2,3-difluorobenzenesulfonyl)ethylamino]pyrimidin-4-ylamino}-3-(4-dimethylcarbamoyloxyphenyl)propionic acid [Example 26]	0.01848 µg/mL	0.001 µg/mL	0.3392 (μg/mL)h
